Reference: publication PMC7369900 (International Journal of Molecular Sciences, 2020)
Values after ≈ are worked out from the molar mass of the structure shown.

Assays:
Assay in all cases: microbe, parasite or virus in culture
C. albicans SC 5314 = settings: Candida albicans, SC5314
C. glabrata DSM 11226 = settings: Nakaseomyces glabratus, DSM11226
C. albicans Gu4 = settings: Candida albicans
C. krusei DSM 6128 = settings: Pichia kudriavzevii, DSM6128
C. albicans Gu5 = settings: Candida albicans
[1] = system: C. albicans Δopt1Δopt5Δptr2Δptr22; settings: Candida albicans

`OC(Cn1cncn1)(Cn1cncn1)c1ccc(F)cc1F` [FLU, Fluconazole] gave an MIC50 (C. albicans SC 5314) of 50 µM (≈ 15.3 µg/mL), an MIC90 (C. albicans SC 5314) of 100 µM (≈ 30.6 µg/mL) and an MIC50 (C. glabrata DSM 11226) of 100 µM (≈ 30.6 µg/mL). For the same compound, the MIC50 (C. albicans Gu4) was 50 µM (≈ 15.3 µg/mL), the MIC50 (C. krusei DSM 6128) was 50 µM (≈ 15.3 µg/mL) and the MIC50 (C. albicans Gu5) was over 200 µM. It also gave an MIC50 [1] of 50 µM (≈ 15.3 µg/mL) and an MIC90 [1] of 100 µM (≈ 30.6 µg/mL).
